The text below walks through data of US8324251B2, “Cyclic modulators of chemokine receptor activity” (Bristol-Myers Squibb Company, priority 2006, dated 2012).

Structures are written as SMILES. Structures can show the parent of a compound that is named as a salt.

In this assay the target is T1, CCR1 (Homo sapiens, UniProt P32246).
T1 construct: the THP-1 cell line, which expresses the endogenous CCR1 receptor; endogenous in cells; host or cells: THP-1 cells (human monocytic cell line)
T1 sequence (P32246 1-355): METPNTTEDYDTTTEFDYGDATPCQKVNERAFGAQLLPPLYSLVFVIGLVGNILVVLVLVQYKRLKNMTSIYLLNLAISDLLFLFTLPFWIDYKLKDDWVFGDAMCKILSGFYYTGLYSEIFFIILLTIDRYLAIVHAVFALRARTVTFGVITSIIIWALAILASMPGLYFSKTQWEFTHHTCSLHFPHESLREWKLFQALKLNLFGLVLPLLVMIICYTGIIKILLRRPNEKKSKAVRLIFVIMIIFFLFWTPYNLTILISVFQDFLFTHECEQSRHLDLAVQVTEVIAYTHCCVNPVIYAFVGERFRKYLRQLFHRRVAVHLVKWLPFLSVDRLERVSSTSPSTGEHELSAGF
As to the kind of experiment: Antagonism of MIP-1α binding to human THP-1 cells (125-I MIP-1α radioligand binding). As to conditions: 125-I labeled human MIP-1α, THP-1 cells expressing endogenous CCR1; read-out: CCR1 Binding Ki (n = 1 unless otherwise noted). The protocol: Antagonism of MIP-1α Binding to Human THP-1 Cells
Compounds of the present invention have activity in the antagonism of MIP-1α binding to human THP-1 cells described here.
Millipore filter plates (#MABVN1250) are treated with 100 μl of binding buffer (0.5% bovine serum albumin, 20 mM HEPES buffer and 5 mM magnesium chloride in RPMI 1640 media) for thirty minutes at room temperature. To measure binding, 50 μl of binding buffer, with or without a known concentration of compound, is combined with 50 μl of ^125-I labeled human MIP-1α (to give a final concentration of […] radioligand) and 50 μl of binding buffer containing 5×10^5 cells. Cells used for such binding assays can include the THP-1 cell line, which expresses the endogenous CCR1 receptor, or human peripheral blood mononuclear cells, isolated by Ficoll-Hypaque gradient centrifugation, or human monocytes (Weiner et al., J. Immunol. Methods, 1980, 36, 89). The mixture of compound, cells and radioligand is incubated at room temperature for thirty minutes. Plates are placed onto a vacuum manifold, vacuum applied, and the plates washed three times with binding buffer containing 0.5M NaCl. The plastic skirt is removed from the plate, the plate allowed to air dry, the wells punched out and counted. The percent inhibition of binding is calculated using the total counts obtained in the absence of any competing compound and the background binding determined by addition of 100 nM MIP-1α in place of the test compound.
Compounds of the present invention were tested in the assay described immediately above and the results, including results from the chiral separation of Example 1c, shown in Table 2 below were obtained.
Usually Ki stands for a dissociation constant, usually derived from enzyme kinetics or from competition with a known ligand. Turning to `NC(=O)Nc1cc(Cl)ccc1OCC(O)C1CCN(Cc2ccc(Cl)c(Cl)c2)CC1` (single isomer, unassigned) [1c Enantiomer 1], the Ki came to 1500 nM. The value for `OC(COc1ccc(Cl)cc1)C1CCN(Cc2ccc(Cl)cc2)CC1` (racemic) [Example 1i, 1-(1-(4-Chlorobenzyl)piperidin-4-yl)-2-(4-chlorophenoxy)ethanol, TFA salt] was 111 nM. Regarding `OC(COc1ccc(Cl)cc1)C1CCN(Cc2ccccc2)CC1` (racemic) [Example 1l, 1-(1-Benzylpiperidin-4-yl)-2-(4-chlorophenoxy)ethanol, TFA salt], the Ki worked out at 6440 nM.

On to `NC(=O)Nc1cc(Cl)ccc1OCC(O)C1CCN(Cc2ccc(Cl)c(Cl)c2)CC1` (single isomer, unassigned) [1c Enantiomer 2], for which the Ki came to 6.1 ± 0.71 nM.

`NC(=O)Nc1cc(Cl)ccc1OCC(O)C1CCN(Cc2ccc(Cl)cc2)CC1` (racemic) [Example 1a, 1-(5-Chloro-2-(2-(1-(4-chlorobenzyl)piperidin-4-yl)-2-hydroxyethoxy)phenyl)urea, TFA salt]: the Ki is 4.49 ± 1.15 nM.
